Consider three compounds from patent US20100317528A1, “HERBICIDE CONTAINING BENZOYLPYRAZOLE COMPOUND” (ISHIHARA SANGYO KAISHA, LTD., priority 2006, published 2010).

Holding throughout (type): in vivo
Test [1] concerns redroot pigweed (Amaranthus retroflexus L.). The experiment in a line: Test Example 1: foliar treatment, upland pot test, redroot pigweed. The following applies: 31 g/ha active ingredient, observed 17th to 25th day after application. An outline of the steps:
(§1)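 Upland soil pots, sown; foliar spray at pigweed cotyledon–2.0 leaf, velvetleaf 0.1–1.5 leaf, rice 1.0–3.0 leaf, wheat 1.7–3.4 leaf. WP/EC formulations, prescribed a.i. rate, 500 L/ha spray volume + 0.1 vol % spreader. Visual % inhibition, d17–25.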

Test [2] deals with crabgrass (Digitaria sanquinalis L.). In words: Test Example 2: soil application on the day after sowing, crabgrass. The following applies: 250 g/ha active ingredient, observed 19th to 28th day after application. The essentials:
(§2)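 Pre-emergence soil spray on the day after sowing in upland soil pots, formulated compounds diluted in water equivalent to 500 liter per hectare at prescribed active-ingredient rates. Growth inhibition (0–100%, 100 = complete kill) scored visually 19th to 28th day after application.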

Test [3] relates to rice (Oryza sativa L.). In words: Test Example 1: foliar treatment, upland pot test, rice. The following applies: 31 g/ha active ingredient, observed 17th to 25th day after application. The essentials:
as §1

Test [4] deals with velvetleaf (Abutilon theophrasti MEDIC.). The experiment in a line: Test Example 2: soil application on the day after sowing, velvetleaf. The following applies: 250 g/ha active ingredient, observed 19th to 28th day after application. The essentials: as §2
In test [5] the test system is prickly sida (Sida spinosa L.). In words: Test Example 1: foliar treatment, upland pot test, prickly sida. The following applies: 31 g/ha active ingredient, observed 17th to 25th day after application.
The test system of test [6] is green foxtail (Setaria viridis L.). In words: Test Example 1: foliar treatment, upland pot test, green foxtail. The following applies: 31 g/ha active ingredient, observed 17th to 25th day after application.
Test [7] concerns corn (Zea mays L.). The experiment in a line: Test Example 2: soil application on the day after sowing, corn. The following applies: 250 g/ha active ingredient, observed 19th to 28th day after application. The essentials:
as §2

The test system of test [8] is barnyardgrass (Echinochloa crus-galli L.). In words: Test Example 1: foliar treatment, upland pot test, barnyardgrass. The following applies: 31 g/ha active ingredient, observed 17th to 25th day after application.
Test [9] has as its system guineagrass (Panicum maximum Jacq.). The experiment in a line: Test Example 3: foliar treatment at later leaf stage, guineagrass. The following applies: 3.5 to 4.3 leaf stage, KUSARINOH 0.1 vol %, 500 L/ha. The source says: (§3) Upland field soil was put into a 1/1,000,000 hectare pot, and seeds of various plants were sown. When the respective plants reached predetermined leaf stage ((1) green foxtail (Setaria viridis L.): 4.0 to 4.5 leaf stage, (2) guineagrass (Panicum maximum Jacq.): 3.5 to 4.3 leaf stage, and (3) corn (Zea mays L.): 4.0 to 4.3 leaf stage, wettable powders or emulsifiable concentrates of compounds of the above formula (I), prepared in accordance with a conventional preparation method, were weighed so that the active ingredients became the prescribed amounts, and diluted with water in an amount corresponding to 300 or 500 liter per 1 hectare (containing of an agricultural spreader (MSO concentrate, manufactured by Cognis Corporation or “KUSARINOH”, manufactured by NIHON NOHYAKU CO., LTD.). The spray solutions thus prepared were applied for foliar treatment by a small sprayer.
(§4) On the 18th to 24th day after application, the state of growth of the respective plants was visually observed, and the herbicidal effect was evaluated by a growth inhibition rate (%) of 0 (equivalent to the non-treated area) to 100% (complete kill).

The test system of test [10] is wheat (Triticum spp.). In words: Test Example 1: foliar treatment, upland pot test, wheat. The following applies: 31 g/ha active ingredient, observed 17th to 25th day after application. An outline of the steps: as §1
In test [11] the test system is corn (Zea mays L.). The experiment in a line: Test Example 3: foliar treatment at later leaf stage, corn. The following applies: 4.0 to 4.3 leaf stage, MSO Concentrate 0.5 vol %, 300 L/ha.
From the text: as §3, §4

The test system of test [12] is soybean (Glycine max Merr.). In words: Test Example 1: foliar treatment, upland pot test, soybean. The following applies: 31 g/ha active ingredient, observed 17th to 25th day after application.
The subject of test [13] is velvetleaf (Abutilon theophrasti MEDIC.). In words: Test Example 1: foliar treatment, upland pot test, velvetleaf. The following applies: 31 g/ha active ingredient, observed 17th to 25th day after application. An outline of the steps:
as §1

In test [14] the test system is green foxtail (Setaria viridis L.). The experiment in a line: Test Example 3: foliar treatment at later leaf stage, green foxtail. The following applies: 4.0 to 4.5 leaf stage, MSO Concentrate 0.5 vol %, 300 L/ha.
From the text: as §3, §4

In test [15] the test system is redroot pigweed (Amaranthus retroflexus L.). In words: Test Example 2: soil application on the day after sowing, redroot pigweed. The following applies: 250 g/ha active ingredient, observed 19th to 28th day after application. An outline of the steps: as §2
In test [16] the test system is corn (Zea mays L.). The experiment in a line: Test Example 1: foliar treatment, upland pot test, corn. The following applies: 31 g/ha active ingredient, observed 17th to 25th day after application.
For test [17], the system named is crabgrass (Digitaria sanguinalis L.). In words: Test Example 1: foliar treatment, upland pot test, crabgrass. The following applies: 31 g/ha active ingredient, observed 17th to 25th day after application.
The subject of test [18] is rice (Oryza sativa L.). The experiment in a line: Test Example 2: soil application on the day after sowing, rice. The following applies: 250 g/ha active ingredient, observed 19th to 28th day after application. The essentials:
as §2

In test [19] the test system is barnyardgrass (Echinochloa crus-galli L.). The experiment in a line: Test Example 2: soil application on the day after sowing, barnyardgrass. The following applies: 250 g/ha active ingredient, observed 19th to 28th day after application. An outline of the steps:
as §2

Test [20] has as its system prickly sida (Sida spinosa L.). In words: Test Example 2: soil application on the day after sowing, prickly sida. The following applies: 250 g/ha active ingredient, observed 19th to 28th day after application. The essentials: as §2
For test [21], the system named is wheat (Triticum spp.). In words: Test Example 2: soil application on the day after sowing, wheat. The following applies: 250 g/ha active ingredient, observed 19th to 28th day after application. The essentials: as §2
Test [22] concerns green foxtail (Setaria viridis L.). The experiment in a line: Test Example 2: soil application on the day after sowing, green foxtail. The following applies: 250 g/ha active ingredient, observed 19th to 28th day after application. The essentials:
as §2

Test [23] relates to soybean (Glycine max Merr.). The experiment in a line: Test Example 2: soil application on the day after sowing, soybean. The following applies: 250 g/ha active ingredient, observed 19th to 28th day after application. An outline of the steps:
as §2

[24] abbreviates: Amaranthus retroflexus, read-out: Growth inhibition rate (%) Redroot pigweed.
The mark [25] stands for this setting: Abutilon theophrasti, read-out: Growth inhibition rate (%) Velvetleaf.
Setting [26] is: Zea mays, read-out: Growth inhibition rate (%) Corn.

Consider `COCCOc1c(S(C)(=O)=O)ccc(C(=O)c2cnn(C)c2O)c1C` [Compound No. 151, 5-hydroxy-1-methylpyrazol-4-yl 3-(2-methoxyethoxy)-2-methyl-4-(methylsulfonyl)phenyl ketone], for which the inhibition at 31 g/ha in test [1] (setting [24]) is 100%; in the test with rice (Oryza sativa L.) [3] (Oryza sativa, read-out: Growth inhibition rate (%) Rice) it was 60%; in test [5] (Sida spinosa, read-out: Growth inhibition rate (%) Prickly sida) it was 80%; in [6] (Setaria viridis, read-out: Growth inhibition rate (%) Green foxtail) it was 100%; in test [8] (Echinochloa crus-galli, read-out: Growth inhibition rate (%) Barnyardgrass) it was 100%; in test [9] (Megathyrsus maximus, read-out: Growth inhibition rate (%) (18th day after application) Guineagrass), 93%. Also, the inhibition at 31 g/ha is 10% in the test with wheat (Triticum spp.) [10] (Triticum, read-out: Growth inhibition rate (%) Wheat); 95% in [12] (Glycine max, read-out: Growth inhibition rate (%) Soybean); 98% in [13] (setting [25]); 30% in the test on corn (Zea mays L.) [16] (setting [26]); 100% in test [17] (Digitaria sanguinalis, read-out: Growth inhibition rate (%) Crabgrass). Further, the inhibition at 250 g/ha in test [2] (Digitaria, read-out: Growth inhibition rate (%) Crabgrass) stood at 100%; in [4] (setting [25]), 70%; in the test on corn (Zea mays L.) [7] (setting [26]), 0%; in test [15] (setting [24]), 100%. In addition, in the test with corn (Zea mays L.) [11] (Zea mays, read-out: Growth inhibition rate (%) (21st day after application) Corn), the inhibition at 120 g/ha was 2%. Besides, in [14] (Setaria viridis, 7 g/ha, read-out: Growth inhibition rate (%) (24th day after application) Green foxtail), the inhibition at 7 g/ha is 97%. For the same compound, the inhibition at 15 g/ha in [14] (Setaria viridis, 15 g/ha, read-out: Growth inhibition rate (%) (24th day after application) Green foxtail) came out at 100%.

Consider `COCCOc1c(S(C)(=O)=O)ccc(C(=O)c2cnn(C(C)C)c2O)c1C` [compound 258], for which the “Growth inhibition rate (%) Redroot pigweed” value in test [1] was 95%; in test [15], 100%. Further, the “Growth inhibition rate (%) Crabgrass” value in [2] and in [17] was 100% in each case. Besides, the entries for the “Growth inhibition rate (%) Rice” value in the test on rice (Oryza sativa L.) [3] and with rice (Oryza sativa L.) [18] were 95% and 80%, respectively. The “Growth inhibition rate (%) Velvetleaf” value worked out at 100% in [4] and 98% in [13]. The “Growth inhibition rate (%) Prickly sida” value in [5] came to 50%; in test [20] it was 40%. Besides, the “Growth inhibition rate (%) Green foxtail” value in test [6] and in test [22] was 100% in each case. Also, the “Growth inhibition rate (%) Barnyardgrass” value in [19] and in test [8] was 100% each time. Also, the “Growth inhibition rate (%) Corn” value in the test on corn (Zea mays L.) [7] is given as 0%; with corn (Zea mays L.) [16] it was 10%. In addition, the “Growth inhibition rate (%) Wheat” value in the test with wheat (Triticum spp.) [10] and in the test with wheat (Triticum spp.) [21] was 0% throughout. The “Growth inhibition rate (%) Soybean” value in test [12] is given as 90%; in test [23] it was 0%. Also, the “Growth inhibition rate (%) (24th day after application) Green foxtail” value in [14] (7 g/ha) amounted to 95%; in test [14] (15 g/ha), 100%.

As for `CCn1ncc(C(=O)c2ccc(S(C)(=O)=O)c(OCCOC)c2C)c1O` [compound 131], the “Growth inhibition rate (%) Redroot pigweed” value in [1] and in test [15] was 100% throughout. Also, the “Growth inhibition rate (%) Crabgrass” value in test [2] and in [17] was 100% throughout. The entries for the “Growth inhibition rate (%) Rice” value in the test with rice (Oryza sativa L.) [3] and in the test with rice (Oryza sativa L.) [18] were 70% and 100%, respectively. For the same compound, the “Growth inhibition rate (%) Velvetleaf” value in test [4] turned out to be 90%; in [13], 100%. The “Growth inhibition rate (%) Prickly sida” value is given as 70% in test [5] and 30% in [20]. For the same compound, the “Growth inhibition rate (%) Green foxtail” value in test [6] and in test [22] was 100% throughout. In addition, the “Growth inhibition rate (%) Barnyardgrass” value in test [19] and in test [8] was 100% in each case. The “Growth inhibition rate (%) Corn” value with corn (Zea mays L.) [7] came out at 30%; in the test with corn (Zea mays L.) [16], 10%. Besides, in [9] (31 g/ha), the “Growth inhibition rate (%) (18th day after application) Guineagrass” value came to 93%. The “Growth inhibition rate (%) Wheat” value with wheat (Triticum spp.) [10] came out at 30%; in the test with wheat (Triticum spp.) [21], 40%. Also, the “Growth inhibition rate (%) (21st day after application) Corn” value with corn (Zea mays L.) [11] (120 g/ha) was 0%. The “Growth inhibition rate (%) Soybean” value is 100% in [12] and 40% in test [23]. Moreover, the “Growth inhibition rate (%) (24th day after application) Green foxtail” value in test [14] (7 g/ha) stood at 98%; in [14] (15 g/ha), 100%.
